Results reported in US11000535B2, “Anticancer composition and use thereof” (KAOHSIUNG MEDICAL UNIVERSITY, priority 2015, dated 2021).
≈ marks a conversion by molar mass, not a printed value.

Key:
GNMT = GNMT expression in xenograft tumor samples; format: in vivo, mice
Description: Please refer to FIG. 21, which illustrates GNMT/actin expression in the tumor tissue.
Please refer to FIG. 30, which illustrates the relative expression of GNMT mRNA in the tumor xenograft mice after treatments, wherein the numeral 1 is for a physiological saline solution, the numeral 2 is for F3-6 (25 mpk), the numeral 3 is for F3-6 (300 mpk), the numeral 4 is for sorafenib (10 mpk), the numeral 5 is for F3-6 (25 mpk) with sorafenib (10 mpk), and the numeral 6 is for PGG (25 mpk) with sorafenib (10 mpk). The expression activity of GNMT mRNA is increased whenever fracrions F3-6 or PGG are administered.
RNA was prepared by using Tri Reagent (Sigma-Aldrich, St Louis, Mo., USA) and was reverse transcribed into cDNA using a Super Script II Reverse Transcriptase Kit (Invitrogen Inc., Carlsbad, Calif., USA).
PCR was performed on an ABI StepOne Plus System (Applied Biosystems, Foster City, Calif., USA) using the LightCycler® First Start DNA Master SYBR Green I reagent (Roche Diagnostics, Basel, Switzerland). The mRNA level was normalized using the TATA-box binding protein (TBP) mRNA level as the standard. […]
Protein lysates were quantified and separated on SDS-PAGE gel, and immunoblotting was carried out. […]

Mahlavu cells = experiment: alamarBlue cell viability, Mahlavu; format: cell-based, human
Description: (§1) Next, we analyzed the effect of PGG on cell proliferation in different liver cancer cell lines, including Huh7, Hep3B (ATCC-No 8064), HepG2 (ATCC HB-8065), SK-HEP-1 (ATCC HTB-52), Mahlavu and HepG2 (ATCC HB-8065).
(§2) Please refer to FIG. 18, which illustrates the effect of PGG on cell proliferation in different liver cancer cell lines, wherein the numeral 1 denotes Huh7 cells, the numeral 2 denotes Hep3B cells, the numeral 3 denotes SK-HEP-1 cells, the numeral 4 denotes Mahlavu cells, and the numeral 5 denotes HepG2 cells. And cell viability was determined by the alamarBlue® viability assay. IC50 values of PGG in each cell line are shown as follows: Huh7 cells 0.03 mg/mL, Hep3B cells 0.07 mg/mL, SK-HEP-1 cells, Mahlavu cells and HepG2 0.10 mg/mL dose-dependent.
(§3) Human liver cancer cell lines Huh7, Hep G2, Hep 3B, SK-HEP-1, Mahlavu and embryonic kidney cell line HEK-293T all were cultured in Dulbecco's Modified Eagle's Medium (DMEM) (Gibco BRL, Grand Island, N.Y., USA) with 10% heat-inactivated fetal bovine serum (HyClone, Logan, Utah, USA), penicillin (100 U/mL), streptomycin ([…]), nonessential amino acids (0.1 mM/L) and L-glutamine (2 mM/L) in a humidified incubator with 5% CO2.

HepG2 cells = experiment: alamarBlue cell viability, HepG2; format: cell-based, human
Description: as §1, §2, §3

GNMT promoter = experiment: Dual luciferase GNMT promoter reporter assay in c-Myc knocked-out Huh7 cells; format: cell-based, human; settings: 0.1 mg/mL
Experimental: Huh7 cells were co-transfected with a GNMT promoter reporter plasmid, a thymidine kinase (TK) renilla luciferase plasmid, a shMyc plsmid or a shLacZ plasmid for 72 hours.
Evaluating whether the activity of GNMT promoter is damaged or not by knocking out the c-Myc gene and then administering with PGG, in order to confirm that the inhibition of the expression of c-Myc resulting in induced GNMT promoter due to PGG.
Please refer to FIG. 39, which illustrates overexpressions of PGG and c-Myc have influences on GNMT reporter, wherein the numeral 1 denotes the solvent, the numeral 2 denotes PGG, the numeral 3 denotes shLacZ, and the numeral 4 denotes shMyc.

c-Myc protein = c-Myc protein expression by immunoblotting, PC-3; format: cell-based, human; settings: PC-3 cells, 0.1 mg/mL
Experimental: Human prostate cancer cell line PC-3 and human promyelocytic leukemia cell line HL-60 were cultured in Gibco BRL company RPMI (Roswell Park Memorial Institute) 1640's medium.
Cells or xenograft tumors were harvested with RIPA lysis buffer (50 mM Tris (pH 7.5), 150 mM NaCl, 1% Triton X-100, 0.1% sodium dodecyl sulfate (SDS), 0.5% sodium deoxycholate, supplemented with protease and phosphatase inhibitors (1 mM Phenylmethanesulfonyl Fluoride (PMSF), […], […] Tosyllysine Chloromethyl Ketone (TLCK), […] Tosyl phenylalanyl chloromethyl ketone (TPCK), […] aprotinin, 1 mM sodium fluoride (NaF), 5 mM sodium pyrophosphate (NaPPi) and 10 mM sodium orthovanadate (Na3VO4).
Protein lysates were quantified and separated on SDS-PAGE gel, and immunoblotting was carried out.

caspase 3/7 = experiment: Caspase 3/7 activity assay; format: cell-based, human; settings: Huh7 cells, 12 hours
Experimental: Please refer to FIG. 24, which illustrates PGG induced caspase 3/7 activity in Huh7 cells.
Huh7 cells were plated in 96-well plate and treated with solvent or PGG for 12 h. To measure caspase-3 and caspase-7 activation, the Apo-ONE® Homogeneous Caspase-3/7 assay was performed according to the Promega Technical Bulletin-Apo-ONE® Homogeneous Caspase-3/7 assay.

IC50 (HepG2 cells): 0.10 mg/mL (≈ 106 µM) | increase in caspase 3/7 activity (caspase 3/7): five-fold
SMILES: O=C(OC[C@H]1O[C@@H](OC(=O)c2cc(O)c(O)c(O)c2)[C@H](OC(=O)c2cc(O)c(O)c(O)c2)[C@@H](OC(=O)c2cc(O)c(O)c(O)c2)[C@@H]1OC(=O)c1cc(O)c(O)c(O)c1)c1cc(O)c(O)c(O)c1 [PGG, 1,2,3,4,6-penta-O-galloyl-β-D-glucopyranoside]
GNMT/actin expression in the tumor tissue (immunoblot) (GNMT; PGG 300 mpk xenograft, FIG. 21): induced | expression activity of GNMT mRNA in the tumor (GNMT; combination xenograft study, FIG. 30, F3-6 25 or 300 mpk, PGG 25 mpk with sorafenib 10 mpk): increased | IC50 (Mahlavu cells): 0.10 mg/mL (≈ 106 µM) | GNMT promoter induction in cells knocked out c-Myc (shMyc vs shLacZ) (GNMT promoter): drop | c-Myc protein expression (c-Myc protein): inhibits c-Myc protein expression
